Assay results reported in PMC11726677, “Eradication of Therapy-Resistant Cancer Stem Cells by Novel Telmisartan Derivatives” (Journal of Medicinal Chemistry, 2024).
Several values for one entry are separate records, joined by “and”; a condition that tells them apart may be missing. Equal entries are not always repeated. Each block holds one compound with its values, some of them ahead of it.

Legend:
K562-R cells [1] = test: Metabolic activity of K562-R cells, compounds alone (modified MTT assay); assay type: cell-based, human; conditions: 72 h; for viability at 10 µM: Homo sapiens, K-562R, read-out: metabolic activity of K562-R cells, compound alone
Procedure: (§1) The potential reduction in cell viability was determined using the modified MTT assay.
First, the compounds (10 μM) were applied alone to evaluate their effects per se.
(§2) COS-7 (2 × 10^3 cells per well), IGROV-1 SP (2.5 × 10^3 cells per well), A2780 V SP (1.5 × 10^3 cells per well), PC3-DR (4 × 10^3 cells per well), and DU145-DR (3 × 10^3 cells per well) cells were seeded in 96-well plates in triplicates and after 24 h, the compounds were added at the respective concentrations. K562-R and K562 cells (2 × 10^4 cells per well), were treated with the compounds 2 h after seeding. […] A modified MTT colorimetric assay (EZ4U kit, Biomedica) was used to determine the metabolic activity of the tested cells, according to the manufacturer’s instructions. Absorbance was measured and the optical density of the respective FCS-containing medium and of the substrate was subtracted to exclude nonspecific staining. Metabolic activity in the absence of the compounds (CTR, DMSO) was set to 100% as reference.

K562-R cells [2] = test: Chemosensitizing: metabolic activity of K562-R cells cotreated with imatinib (modified MTT assay); assay type: cell-based, human; conditions: 72 h; for EC50: K562-R, + imatinib 1 μM, read-out: SC50 (drug concentration eliciting 50% of the maximum sensitizing effect)
Procedure: as §1
conc. 10 to 0.5 μM) over 72 h (Figure 3D).
as §2

K562 cells = test: Metabolic activity of TKI-sensitive K562 cells (MTT assay); assay type: cell-based, human; conditions: 10 μM, 72 h, alone
Procedure: Selectivity for therapy-resistant K562-R cells can be assessed by comparing the results with TKI-sensitive K562 cells.
as §2

ABCB1 [3] = test: Jess Simple Western immunoassay of ABCB1 expression in K562-R cells; assay type: cell-based, human; conditions: 4 μM, 72 h
Procedure: (§3) Protein extracts were prepared as previously described.[44] Protein expression was determined using the capillary-based Jess Simple Western detection system (ProteinSimple, BioTechne) according to the manufacturer’s instructions at default settings. […] Horseradish peroxidase (HRP)-conjugated secondary antirabbit antibody, which was included in the Jess Detection Module kit, was used. Data analysis was conducted using Compass for Simple Western 4.0 software (ProteinSimple, BioTechne).

STAT5 [4] = test: Jess Simple Western immunoassay of STAT5/pSTAT5 in K562-R cells; assay type: cell-based, human
Procedure: In the next step, the effects of the compounds (4 μM) on STAT5 in K562-R cells were examined.
as §3

[5] = biological target: T1, ABCB1 transporter in K562-R cells (Homo sapiens, UniProt P08183); test: Side population (SP) analysis, DCV staining, flow cytometry; conditions: 10 μM
Procedure: (§6) SP analyses were performed as previously described[45] on a LSRFortessa flow cytometer (BD Biosciences, Vienna, Austria). Briefly, 1 × 10^6 cells/mL were stained with 10 μM Vybrant DyeCycleTM Violet (DCV; Molecular Probes, Eugene, OR) in the presence or absence of the investigated compounds for 90 min at 37 °C. […] Subsequently, the cells were washed and immediately analyzed using flow cytometry. The FlowJo 9.6 software was used for data analyses (Tree Star Software, Ashland, CA).

[6] = tested on: primary human CML patient samples; test: Colony forming cell (CFC) assay, primary CML patient samples; assay type: cell-based; conditions: together with 1 μM of imatinib, once at the beginning of the 14 day assay; compound 10 μM
Source text: Frozen peripheral blood mononuclear cells (PBMC) from TKI naïve CML patients and healthy controls were used for the CFC assay as described previously.[46] Briefly, thawed cells were resuspended a semisolid medium (Enriched MethocCult H4435, Stem Cell Technologies) supplemented with the respective compounds and cultured in small culture dishes for 2 weeks. Colonies were counted using an inverted microscope.

[7] = tested on: A2780 V SP cells (ABCB1+); test: SP analysis (DCV, flow cytometry) in A2780 V SP cells; assay type: cell-based, human; conditions: 10 μM
Source text: (§4) In recent studies, we described the side population (SP) phenotype as a marker that defines a heterogeneous cellular compartment with stem cell-characteristics in various cancer cell lines derived from solid tumors, such as ovarian cancer, breast cancer, and lung cancer.[26],[27]

[8] = tested on: IGROV-1 SP cells (ABCB1+); test: SP analysis (DCV, flow cytometry) in IGROV-1 SP cells; assay type: cell-based, human; conditions: 10 μM
Source text: as §4

PC3-DR cells (ABCB1+) = test: SP analysis (DCV, flow cytometry) in PC3-DR cells; assay type: cell-based, human; conditions: 10 μM
Source text: as §4

DU145-DR cells (ABCB1+) = test: SP analysis (DCV, flow cytometry) in DU145-DR cells; assay type: cell-based, human; conditions: 10 μM
Source text: as §4

MCF7 cells (ABCG2+) = test: SP analysis (DCV, flow cytometry) in MCF7 cells; assay type: cell-based, human; conditions: MCF7, 10 μM
Source text: as §4

A549 cells (ABCC1+) = test: SP analysis (DCV, flow cytometry) in A549 cells; assay type: cell-based, human; conditions: A549, 10 μM
Source text: as §4

STAT5 [9] = test: Jess Simple Western immunoassay of STAT5/pSTAT5 in IGROV-1 SP cells; assay type: cell-based, human; conditions: IGROV1 SP, 10 μM, 72 h
Procedure: The impact of STAT5 activation on the mode of action was investigated in selected solid tumor cell lines as well.
as §3

A2780 V SP cells = test: Chemosensitizing to paclitaxel: metabolic activity of A2780 V SP cells (MTT); assay type: cell-based, human
Procedure: (§5) The chemosensitizing efficacy was investigated in the ovarian and prostate cancer cell lines using the above-described metabolic activity assay. Paclitaxel (PTX) served as a reference (CTR) in A2780 V SP and IGROV-1 SP cells and docetaxel (DTX) in PC3-DR and D145-DR cells.
as §2

IGROV-1 SP cells = test: Chemosensitizing to paclitaxel: metabolic activity of IGROV-1 SP cells (MTT); assay type: cell-based, human; conditions: 72 h
Procedure: as §5, §2

PC3-DR cells = test: Chemosensitizing to docetaxel: metabolic activity of PC3-DR cells (MTT); assay type: cell-based, human; conditions: 72 h
Procedure: as §5, §2

DU145-DR cells = test: Chemosensitizing to docetaxel: metabolic activity of DU145-DR cells (MTT); assay type: cell-based, human; conditions: 72 h
Procedure: as §5, §2

[10] = biological target: T1, ABCB1 transporter in K562-R cells; conditions: 90 min, 10 μM
Procedure: as §6

[11] = design: method as in PMID 23054986; conditions: cited from earlier work
[12] = design: method as in PMID 32759366; conditions: rat hepatocytes ref 30; cited from earlier work
ABCB1 [13] = tested on: ABCB1; design: method as in Weiss et al. 38; conditions: ref Weiss et al. 38; cited from earlier work
[14] = not told; cited from earlier work
[15] = tested on: human CML K562-R xenograft; test: Efficacy in human CML K562-R xenograft model; assay type: in vivo, female NOD/SCID mice; design: % T/C (treatment/control) / % TGI (tumor growth inhibition): concentration or dose not given beside the values; conditions: for % TGI (tumor growth inhibition): vs vehicle control
Procedure: The animals were checked daily for humane end points. Body weight was measured and recorded daily after dosing.
The % T/C value, defined as the ratio of the mean tumor volume for the treated versus control group, was calculated as % T/C = (Tn/Cn) × 100%; whereas Tn: denotes mean tumor volume of the treated group on day n, and Cn: denotes mean tumor volume of the control group on day n. The optimal value is the minimal % T/C ratio, which reflects the maximal tumor growth inhibition achieved.
TGI (Tumor growth inhibition) was calculated by the following formula [drawing 1] [drawing 2]
Whereas: Tn: denotes the mean tumor volume of the treated group on day n; T1: denotes the mean tumor volume of the treated group on day 1; Cn: denotes the mean tumor volume of the vehicle control group on day n; and C1: denotes the mean tumor volume of the vehicle control group at day 1.

K562-R cells [16] = test: Metabolic activity of K562-R cells, compounds alone (modified MTT assay); assay type: cell-based, human; conditions: imatinib 1 μM, 72 h; compared to the 100% solvent control
[17] = Body weight / tolerability in the K562-R xenograft study; conditions: 7c 10 mg/kg, imatinib 50 mg/kg, PO QD × 30 days
[18] = DTX 12.5 nM, compared to solvent control

T1 sequence (P08183 whole entry): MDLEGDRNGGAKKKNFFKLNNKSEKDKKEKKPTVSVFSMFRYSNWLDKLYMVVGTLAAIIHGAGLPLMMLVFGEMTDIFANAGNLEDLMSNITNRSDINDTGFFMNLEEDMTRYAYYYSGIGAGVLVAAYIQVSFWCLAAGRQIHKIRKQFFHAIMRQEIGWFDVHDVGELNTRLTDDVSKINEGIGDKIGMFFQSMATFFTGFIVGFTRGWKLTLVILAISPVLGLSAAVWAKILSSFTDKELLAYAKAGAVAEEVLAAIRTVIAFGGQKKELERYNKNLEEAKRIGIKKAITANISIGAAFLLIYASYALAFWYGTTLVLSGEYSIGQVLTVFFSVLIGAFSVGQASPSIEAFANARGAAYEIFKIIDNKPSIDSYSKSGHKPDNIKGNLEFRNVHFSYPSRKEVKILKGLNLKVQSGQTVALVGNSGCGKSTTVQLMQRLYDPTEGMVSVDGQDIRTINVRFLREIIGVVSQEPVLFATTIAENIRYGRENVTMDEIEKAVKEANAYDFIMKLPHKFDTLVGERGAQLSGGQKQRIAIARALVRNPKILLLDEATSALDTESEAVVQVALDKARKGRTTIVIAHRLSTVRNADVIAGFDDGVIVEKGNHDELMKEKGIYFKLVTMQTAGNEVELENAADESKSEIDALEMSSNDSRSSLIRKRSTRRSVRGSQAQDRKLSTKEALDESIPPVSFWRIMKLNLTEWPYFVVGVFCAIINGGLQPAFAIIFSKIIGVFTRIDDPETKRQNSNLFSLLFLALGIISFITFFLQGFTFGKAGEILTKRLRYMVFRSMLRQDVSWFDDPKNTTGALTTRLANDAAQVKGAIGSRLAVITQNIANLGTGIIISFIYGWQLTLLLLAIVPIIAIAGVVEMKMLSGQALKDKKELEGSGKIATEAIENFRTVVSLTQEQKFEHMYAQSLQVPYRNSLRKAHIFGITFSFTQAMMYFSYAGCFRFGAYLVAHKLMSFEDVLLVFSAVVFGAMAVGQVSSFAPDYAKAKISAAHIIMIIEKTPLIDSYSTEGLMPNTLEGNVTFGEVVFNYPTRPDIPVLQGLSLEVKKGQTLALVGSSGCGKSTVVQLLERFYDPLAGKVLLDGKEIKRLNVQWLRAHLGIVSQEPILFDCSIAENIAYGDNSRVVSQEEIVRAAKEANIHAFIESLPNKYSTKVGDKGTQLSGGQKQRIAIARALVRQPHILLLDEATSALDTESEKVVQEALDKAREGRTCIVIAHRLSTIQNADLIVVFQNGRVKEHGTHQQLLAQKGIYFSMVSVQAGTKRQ

effect on SP phenotype / ABCB1 activity [5]: efficiently reduced the ABCB1 activity
relation of SP and NSP [5]: about 50%
SMILES: CCCc1nc2ccccc2n1Cc1ccc(-c2ccccc2C(=O)OC)cc1 [4b, Methyl 4′-((2-propyl-1H-benzo[d]imidazole-1-yl)methyl)-[1,1′-biphenyl]-2-carboxylate]
viability at 10 µM (K562-R cells [1]): < 70%
EC50 (K562-R cells [2]): 1240 nM
metabolic activity of K562-R cells, combination with imatinib (K562-R cells [2]; compound 10 μM + imatinib 1 μM): 8–24%
metabolic activity of K562 cells (K562 cells): ≥ 65%
ABCB1 protein expression (ABCB1 [3]): none of the compounds abrogated the ABCB1 protein expression
phosphorylation of STAT5 (STAT5 [4]; 4 μM + imatinib 1 μM, 6 h): hardly triggered any change in the expression of pSTAT5
phosphorylation of STAT5 (STAT5 [4]; 4 μM alone, 72 h): prevented the activation of STAT5

effect on SP phenotype / ABCB1 activity [5]: efficiently reduced the ABCB1 activity
relation of SP and NSP [5]: about 50%
SMILES: CCCc1nc2ccccc2n1Cc1ccc(-c2ccc(C(=O)OC)cc2)cc1 [6b, Methyl 4′-((2-propyl-1H-benzo[d]imidazole-1-yl)methyl)-[1,1′-biphenyl]-4-carboxylate]
viability at 10 µM (K562-R cells [1]): 75 to 80%
EC50 (K562-R cells [2]): 1180 nM
metabolic activity of K562-R cells, combination with imatinib (K562-R cells [2]; compound 10 μM + imatinib 1 μM): 8–24%
metabolic activity of K562 cells (K562 cells): ≥ 65%
ABCB1 protein expression (ABCB1 [3]): none of the compounds abrogated the ABCB1 protein expression
phosphorylation of STAT5 (STAT5 [4]; 4 μM + imatinib 1 μM, 6 h): marked repression of the STAT5 phosphorylation

SMILES: CCCc1nc2c(C)cc(-c3nc4ccccc4n3C)cc2n1Cc1ccc(-c2ccccc2C(=O)O)cc1 [7a, telmisartan]
metabolic activity of K562-R cells, compound alone (K562-R cells [1]; 10 μM, without imatinib, vehicle control = 100%): inactive
metabolic activity of K562-R cells, combination with imatinib (K562-R cells [2]; compound 8 μM + imatinib 1 μM): 55%
metabolic activity of K562-R cells, combination with imatinib (K562-R cells [2]; compound 10 μM + imatinib 1 μM): 34–58%
number of colonies (CFC) [6]: virtually ineffective
effect on SP phenotype [7]: only modestly affected
effect on SP phenotype [8]: only modestly affected
effect on SP phenotype (PC3-DR cells (ABCB1+)): only modestly affected
effect on SP phenotype (DU145-DR cells (ABCB1+)): only modestly affected
effect on SP phenotype (MCF7 cells (ABCG2+)): significantly inhibited the SP phenotype
effect on SP phenotype (A549 cells (ABCC1+)): significantly inhibited the SP phenotype
STAT5 protein expression (STAT5 [9]): significantly suppressed STAT5
chemosensitizing to PTX therapy (A2780 V SP cells; compound 10 μM + PTX 10 nM, 72 h): least active chemosensitizer
viability / antimetabolic effect in combination with PTX (IGROV-1 SP cells; compound 10 μM + PTX 10 nM): increased the antimetabolic effect of PTX
chemosensitizing to DTX (antimetabolic activity) (PC3-DR cells; compound 10 μM + DTX 12.5 nM): only marginally increased the antimetabolic activity of DTX
chemosensitizing to DTX (antimetabolic activity) (DU145-DR cells; compound 10 μM + DTX 12.5 nM): did not significantly reduce the metabolic activity
percentage of cells within SP gate [10]: 76.0%
reported aqueous solubility [11]: 9.9 µg/mL
CLint [12]: about 23 μL/min/10^6 cells
inhibition of ABCB1 (ABCB1 [13]): impeded ABCB1
apparent permeability coefficient (Papp) [14]: 29 10^–6 cms^–1

SMILES: CC(=O)O[C@@]12CO[C@@H]1C[C@H](O)[C@@]1(C)C(=O)[C@H](O)C3=C(C)[C@@H](OC(=O)[C@H](O)[C@@H](NC(=O)OC(C)(C)C)c4ccccc4)C[C@@](O)([C@@H](OC(=O)c4ccccc4)[C@H]21)C3(C)C [DTX, docetaxel, reference compound]
metabolic activity of treated cells, DTX alone (PC3-DR cells; [18]): > 80%
metabolic activity of treated cells, DTX alone (DU145-DR cells; [18]): > 80%

SMILES: Cc1ccc(NC(=O)c2ccc(CN3CCN(C)CC3)cc2)cc1Nc1nccc(-c2cccnc2)n1 [Imatinib, imatinib, reference compound]
% TGI (tumor growth inhibition) ([15]; Day 5): 76%
% TGI (tumor growth inhibition) ([15]; Day 8): 54%
% TGI (tumor growth inhibition) ([15]; Day 12): 50%
% TGI (tumor growth inhibition) ([15]; Day 15): 66%
% TGI (tumor growth inhibition) ([15]; Day 19): 57%
% TGI (tumor growth inhibition) ([15]; Day 22): 57%
% TGI (tumor growth inhibition) ([15]; Day 26): 56%
% TGI (tumor growth inhibition) ([15]; Day 29): 55%
% TGI (tumor growth inhibition) ([15]; Day 33): 59%
Tumor Weight, individual animal ([15]; harvested on day 33, animals No. 1–7): 4.442 g and 0.194 g and 0.080 g and 0.082 g and 0.351 g and 3.076 g and 0.081 g
Tumor Weight, group mean ([15]; harvested on day 33, n = 7): 1.200 g
metabolic activity of K562-R cells, imatinib alone (K562-R cells [16]): 73%
tolerability [17]: well tolerated

SMILES: CC(=O)O[C@H]1C(=O)[C@@]2(C)[C@H]([C@H](OC(=O)c3ccccc3)[C@]3(O)C[C@H](OC(=O)[C@H](O)[C@@H](NC(=O)c4ccccc4)c4ccccc4)C(C)=C1C3(C)C)[C@]1(OC(C)=O)CO[C@@H]1C[C@@H]2O [PTX, paclitaxel]
IC50 (A2780 V SP cells; Homo sapiens, PTX 0–300 nM, read-out: IC50 (PTX), PTX alone): 168 nM
metabolic activity of treated cells, PTX alone (A2780 V SP cells; PTX 10 nM, 72 h, compared to solvent control): > 80%
metabolic activity of treated cells, PTX alone (IGROV-1 SP cells; PTX 10 nM, compared to solvent control): > 80%

SMILES: CCCCC1=NC2(CCCC2)C(=O)N1Cc1ccc(-c2ccccc2-c2nnn[nH]2)cc1 [irbesartan]
inhibition of ABCB1 (ABCB1 [13]): only slightly
